According to article PMC10731459, “A SARS-CoV-2 NSP7 homolog of a Treg epitope suppresses CD4+ and CD8+ T cell memory responses” (Frontiers in Immunology, 2023):
Read-outs that look alike come from different tables or passages of the source. Where no end group is shown, it is not given here.

What was measured:
[1] = target: T1, HLA-DRB1*03:01 (Homo sapiens, UniProt P01903+P01911, A100K/A102G/A103R/A169T/F55Y/I96L/K41T/L162R/M171V/P40S/Q125H/Q178H/Q39Y/R42S/S66N/T106N/T262R/W38E/Y61H); assay: HLA binding assay, DRB1*03:01
T1 construct: purchased Benaroya Research Institute, Seattle, Washington

[2] = target: T2, HLA-DRB1*01:01 (Homo sapiens, UniProt P01903+P01911, A100R/D57E/F55L/F60I/F76Y/I96L/L162R/M171V/P40L/Q125E/R42F/V115G/Y59C); assay: HLA binding assay, DRB1*01:01
T2 construct: purchased Benaroya Research Institute, Seattle, Washington

[3] = target: HLA-DRB1*07:01 (Homo sapiens, UniProt P01903+P01911, A100R/A102G/A103Q/D57E/D86V/E43K/F76Y/K127E/L162R/M171V/P40G/Q125H/Q99D/R33Q/R42Y/R54Q/S133A/S66F/T210M/V115G/Y107V/Y59L/Y89S); assay: HLA binding assay, DRB1*07:01
[4] = target: HLA-DRB1*09:01 (Homo sapiens, UniProt P01903+P01911, A100R/A103E/D57H/D86V/F55Y/F60I/F76Y/I96F/K127E/L162R/M171V/P40D/Q125H/Q99R/R33Q/R42F/S133A/S66N/T210M/V115G/W38K/Y107V/Y59G/Y89S); assay: HLA binding assay, DRB1*09:01
[5] = target: T3, HLA-DRB1*15:01 (Homo sapiens, UniProt P01903+P01911); assay: biochemical; assay type: binding
T3 construct: purchased Benaroya Research Institute, Seattle, Washington

[6] = target: T4, HLA-DRB1*04:01 (Homo sapiens, UniProt P01903+P01911, A100K/A169T/F76Y/I96L/K127E/L162R/M171V/N62H/P40V/Q125Y/R42H/S133A/S149N/S66Y/V115G/V209L/W38E); assay: HLA binding assay, DRB1*04:01
T4 construct: purchased Benaroya Research Institute, Seattle, Washington

[7] = target: HLA-DRB1*11:01 (Homo sapiens, UniProt P01903+P01911, A100R/A169T/A87E/I96F/K41T/L162R/M171V/P40S/Q125H/Q178H/Q39Y/Q99D/R42S/S66Y/T262R/V115G/W38E); assay: HLA binding assay, DRB1*11:01
Chain of HLA-DRB1*11:01 (P01903 26-254 limits assumed, other chains not shown): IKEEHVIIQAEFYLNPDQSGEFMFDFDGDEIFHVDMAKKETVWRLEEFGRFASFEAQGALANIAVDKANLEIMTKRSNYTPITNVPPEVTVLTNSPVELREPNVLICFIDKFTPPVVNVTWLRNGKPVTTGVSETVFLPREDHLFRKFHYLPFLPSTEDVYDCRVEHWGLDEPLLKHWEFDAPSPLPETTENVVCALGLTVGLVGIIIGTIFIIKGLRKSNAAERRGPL

[8] = system: human CD4+ T cells; assay type: cell-based

## EKMVSLLSVLLSM [NSP7-289]
[1]; read-out: HLA-DRB1 (IC50) *0301
  IC50: 31 µM
[2]; read-out: HLA-DRB1 (IC50) *0101
  IC50: 0.27 µM
[3]; read-out: HLA-DRB1 (IC50) *0701
  IC50: 2.68 µM
[4]; read-out: HLA-DRB1 (IC50) *0901
  IC50: 7.79 µM
[5]; read-out: HLA-DRB1 (IC50) *1501
  IC50: 0.2 µM
[6]; read-out: HLA-DRB1 (IC50) *0401
  IC50: 28.8 µM
[7]; read-out: HLA-DRB1 (IC50) *1101
  IC50: 3.24 µM

## KSTYRVVSVLTVLHQD-NH2 [Tregitope 289z]
[1]
  IC50: 8.99 µM
[2]
  IC50: 0.16 µM
[3]
  IC50: 0.2 µM
[4]
  IC50: 0.22 µM
[5]
  IC50: 2.52 µM
[6]
  IC50: 0.65 µM
[7]
  IC50: 0.48 µM

## TT: TT (Astarte Biologics, cat no. 1002), stimulating antigen
[8]
  increase of CD4+ T cell proliferation by TT stimulation: roughly 20 fold
